Laboratory results as given in patent US20210267944A1 (BioXcel Therapeutics, Inc., priority 2018, published 2021).
Where “and” joins values, the source holds several entries; their conditions need not be identical. Identical values can stand only once. Counter-ions that a name gives are not always drawn. Like-named read-outs stand apart in the source and are kept apart here.

Tests used:
[1] = SDAT
[2] = system: subjects suffering from schizophrenia; conditions: for RASS values after infusion start: schizophrenia patients, per patient
[3] = clinical; conditions: human, plasma, iv, Plasma concentrations, individual opioid withdrawal patients, IV infusion
[4] = Post-ECG, After stopping of Dose

With `Cc1cccc([C@H](C)c2cnc[nH]2)c1C` [dexmedetomidine hydrochloride] the “QTc interval, Max” value [1, 4] was 592, the “QTc interval, Mean ± SD” value [1, 4] was 462.9 ± 73.04 and the “QTc interval, Median” value [1, 4] was 441.0. The “QTc interval, Min” value [1, 4] was 370, the “QTc interval, Max” value ([1]; Pre-ECG, Before Dosing) was 524 and the “QTc interval, Mean ± SD” value ([1]; Pre-ECG, Before Dosing) was 447.2 ± 35.51. The “QTc interval, Median” value ([1]; Pre-ECG, Before Dosing) was 444.3, the “QTc interval, Min” value ([1]; Pre-ECG, Before Dosing) was 398 and the “Efficacy (Primary/secondary end points): subjects reaching RASS-1” value ([2]; Schizophrenia Study) was 9/10 RASS-1. For the same compound, the “Range of efficacious dose of IV dexmedetomidine hydrochloride” value ([2]; Schizophrenia Study, continuous infusion) was 0.2 to 0.4 µg/kg/h, the “patients in the treatment arm who achieved a RASS score of at least −1” value ([2]; schizophrenia) was 9 out of 10 and the “RASS values after infusion start” value ([2]; infusion 15 minutes) was −2 and −1. For the same compound, the “RASS values after infusion start” value ([2]; infusion 30 minutes) was 0, the “RASS values after infusion start” value ([2]; infusion 75 minutes) was −1 and the “RASS values after infusion start” value ([2]; infusion 90 minutes) was 0. The “RASS values after infusion start” value ([2]; infusion […]) was 0, the Mean infusion rate ([2]; schizophrenic patients) was 0.36 µg/kg/h and the concentration at […] ([3]; Day 1 (printed Day −1), 01:15 Hr) was 0.0753 ng/mL. It also gave a concentration at […] ([3]; Day 1 (printed Day −1), 01:30 Hr) of 0.112 ng/mL, a concentration at 0 h ([3]; Day 2 (printed Day −2), 00:00 Hr) of 0.00821 ng/mL and a concentration at […] ([3]; Day 2 (printed Day −2), 01:15 Hr) of 0.14 ng/mL. For the same compound, the concentration at […] ([3]; Day 2 (printed Day −2), 01:30 Hr) was 0.177 ng/mL, the concentration at […] ([3]; Day 2 (printed Day −2), 01:45 Hr) was 0.288 ng/mL and the concentration at 2 h ([3]; Day 2 (printed Day −2), 02:00 Hr) was 0.404 ng/mL.
